As a reminder, the IC50 is the concentration that gives 50% inhibition. High values mean lower potency, low ones higher potency.

Chain of ROCK2 (O75116 whole entry, species assumed): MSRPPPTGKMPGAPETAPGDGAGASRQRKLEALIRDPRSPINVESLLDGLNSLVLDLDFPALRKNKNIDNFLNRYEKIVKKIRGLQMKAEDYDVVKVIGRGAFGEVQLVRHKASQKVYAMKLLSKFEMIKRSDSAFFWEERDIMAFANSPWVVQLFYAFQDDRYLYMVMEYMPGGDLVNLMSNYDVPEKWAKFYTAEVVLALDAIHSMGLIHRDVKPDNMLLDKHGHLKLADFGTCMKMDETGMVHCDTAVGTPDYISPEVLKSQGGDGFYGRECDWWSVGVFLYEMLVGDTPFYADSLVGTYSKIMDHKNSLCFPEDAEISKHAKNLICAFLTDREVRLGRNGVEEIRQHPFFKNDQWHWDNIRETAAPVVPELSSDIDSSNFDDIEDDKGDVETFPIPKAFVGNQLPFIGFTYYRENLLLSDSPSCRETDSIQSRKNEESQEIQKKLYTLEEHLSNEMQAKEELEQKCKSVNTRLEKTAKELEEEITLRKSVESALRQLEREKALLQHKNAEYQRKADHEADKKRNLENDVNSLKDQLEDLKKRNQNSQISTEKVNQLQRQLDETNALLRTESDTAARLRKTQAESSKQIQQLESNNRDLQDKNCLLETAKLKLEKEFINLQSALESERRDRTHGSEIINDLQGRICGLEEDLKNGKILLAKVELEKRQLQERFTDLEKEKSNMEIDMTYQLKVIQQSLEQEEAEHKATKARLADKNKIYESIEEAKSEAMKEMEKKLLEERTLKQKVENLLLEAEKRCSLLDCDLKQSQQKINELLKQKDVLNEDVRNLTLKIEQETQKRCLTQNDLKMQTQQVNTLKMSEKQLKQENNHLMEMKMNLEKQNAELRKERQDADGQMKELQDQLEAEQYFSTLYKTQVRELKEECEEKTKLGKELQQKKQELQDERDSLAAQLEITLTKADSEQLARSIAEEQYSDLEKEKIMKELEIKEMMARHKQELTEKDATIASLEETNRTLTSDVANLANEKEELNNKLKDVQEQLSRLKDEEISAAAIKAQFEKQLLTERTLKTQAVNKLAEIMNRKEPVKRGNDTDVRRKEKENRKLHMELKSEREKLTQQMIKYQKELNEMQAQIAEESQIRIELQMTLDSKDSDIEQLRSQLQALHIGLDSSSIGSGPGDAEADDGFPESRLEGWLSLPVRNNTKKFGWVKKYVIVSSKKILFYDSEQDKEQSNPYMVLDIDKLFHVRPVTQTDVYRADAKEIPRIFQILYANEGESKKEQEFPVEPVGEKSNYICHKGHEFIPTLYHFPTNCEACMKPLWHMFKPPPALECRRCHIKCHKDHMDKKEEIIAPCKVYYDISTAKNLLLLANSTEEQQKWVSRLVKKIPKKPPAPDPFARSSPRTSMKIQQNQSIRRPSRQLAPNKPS

One experiment has as its system rat models of hypertension.
Assay: not given
As to conditions: control rats; cited from earlier work.
Take `C[C@@H](N)[C@H]1CC[C@H](C(=O)Nc2ccncc2)CC1` [Example Y-27632, Y-27632]: the blood pressure result was “only a minor effect”.

Staying with this experiment, now noted: spontaneously hypertensive rat, renal hypertensive rat and deoxycortisone acetate salt hypertensive rat models; cited from earlier work.
`C[C@@H](N)[C@H]1CC[C@H](C(=O)Nc2ccncc2)CC1` [Example Y-27632, Y-27632]: the blood pressure entry is recorded as “significantly decrease blood pressure”.

A further experiment relates to rat stroke model.
Assay: not given
To be noted: in vivo; cited from earlier work.
On to `O=S(=O)(c1cccc2cnccc12)N1CCCNCC1` [fasudil], for which the “infarct size and neurologic deficit” value is “reduce both the infarct size and neurologic deficit”.

The target in the next experiment is ROCK2 (Homo sapiens, UniProt O75116). The experiment in a line: ROCK2 assay (Caliper LABCHIP peptide phosphorylation, kinase inhibition). It counts as biochemical. To be noted: 5 μM ATP, 1.5 μM peptide substrate. On the procedure:
The effectiveness of compounds of the present invention as ROCK inhibitors can be determined in a 30 μL assay containing 20 mM HEPES, pH 7.5, 20 mM MgCl2, 0.015% Brij-35, 4 mM DTT, 5 μM ATP and 1.5 μM peptide substrate (FITC-AHA-AKRRRLSSLRA-OH) (SEQ ID NO. 1). Compounds were dissolved in DMSO so that the final concentration of DMSO was <2%, and the reaction was initiated with Rho kinase variants. After incubation, the reaction was terminated by the addition of EDTA and the phosphorylated and non-phosphorylated peptides separated using a LABCHIP® 3000 Reader (Caliper Life Sciences). […] Compounds were tested in dose-response format, and the inhibition of kinase activity was calculated at each concentration of compound. The inhibition data were fit using a curve-fitting program to determine the IC50; i.e., the concentration of compound required to inhibit 50% of kinase activity.
Representative Examples were tested in the ROCK2 assay described above and found having ROCK2 inhibitory activity. The ranges of the ROCK2 IC50 values are as follows: ROCK2 IC50: ++++ (<10 nM) +++ (10-100 nM) ++ (100-500 nM) + (500-2000 nM)
Regarding `CC(C)n1ccc(NC2CCN(c3ccc(-c4n[nH]c(=O)c5ccccc45)cc3)C2=O)n1` (stereo not drawn) [Example 64, 4-[4-(2-oxo-3-{[1-(propan-2-yl)-1H-pyrazol-3-yl]amino}pyrrolidin-1-yl)phenyl]-1,2-dihydrophthalazin-1-one], the IC50 was in the range of 10 to 100 nM.

Turning to `O=C1N(c2ccc(-c3n[nH]c(=O)c4ccccc34)cc2)CCN1c1ccccn1` [Example 12, 4-{4-[2-oxo-3-(pyridin-2-yl)imidazolidin-1-yl]phenyl}-1,2-dihydrophthalazin-1-one], the IC50 fell in the range of 10 to 100 nM.

In turn, `O=C1C(Nc2ccc3c(c2)OCO3)CCN1c1ccc(-c2n[nH]c(=O)c3ccccc23)cc1` (stereo not drawn) [Example 33, 4-(4-{3-[(2H-1,3-benzodioxol-5-yl)amino]-2-oxopyrrolidin-1-yl}phenyl)-1,2-dihydrophthalazin-1-one] had a half-maximal inhibitory concentration (IC50) of 10 to 100 nM.

Regarding `Cn1nc(C2CC2)cc1NC1CCN(c2ccc(-c3n[nH]c(=O)c4ccccc34)cc2)C1=O` (stereo not drawn) [Example 35, 4-(4-{3-[(3-cyclopropyl-1-methyl-1H-pyrazol-5-yl)amino]-2-oxopyrrolidin-1-yl}phenyl)-1,2-dihydrophthalazin-1-one], the IC50 was 10 to 100 nM.

`COc1cc(OC2CCN(c3ccc(-c4n[nH]c(=O)c5ccccc45)cc3)C2=O)ccc1F` (stereo not drawn) [Example 88, 4-{4-[3-(4-fluoro-3-methoxyphenoxy)-2-oxopyrrolidin-1-yl]phenyl}-1,2-dihydrophthalazin-1-one] came in with an IC50 of 10 to 100 nM.

As for `COc1cc(F)cc(OC2CCN(c3ccc(-c4n[nH]c(=O)c5ccccc45)cc3)C2=O)c1` (stereo not drawn) [Example 89, 4-{4-[3-(3-fluoro-5-methoxyphenoxy)-2-oxopyrrolidin-1-yl]phenyl}-1,2-dihydrophthalazin-1-one], the IC50 lay in the range of 10 to 100 nM.

In the case of `COc1cccc(Cn2c(C)nn(-c3ccc(-c4c[nH]c(=O)c5ccsc45)cc3)c2=O)c1` [Example 72, 4-[(3-methoxyphenyl)methyl]-3-methyl-1-(4-{4-oxo-3aH,4H,5H,7aH-thieno[3,2-c]pyridin-7-yl}phenyl)-4,5-dihydro-1H-1,2,4-triazol-5-one], the concentration for half-maximal inhibition (IC50) lay within 500 to 2000 nM.

On to `O=C1C(NCCc2ccccc2)CCN1c1ccc(-c2n[nH]c(=O)c3ccccc23)cc1` (stereo not drawn) [Example 45, 4-(4-{2-oxo-3-[(2-phenylethyl)amino]pyrrolidin-1-yl}phenyl)-1,2-dihydrophthalazin-1-one], for which the IC50 lay in the range of 500 to 2000 nM.

`Cc1nc2ccc(NC3CCN(c4ccc(-c5n[nH]c(=O)c6ccccc56)cc4)C3=O)cc2s1` (single isomer, unassigned) [Example 81, 4-(4-{3-[(2-methyl-1,3-benzothiazol-6-yl)amino]-2-oxopyrrolidin-1-yl}phenyl)-1,2-dihydrophthalazin-1-one]: the half-inhibitory concentration (IC50) lay in the range of 10 to 100 nM.

`COc1cccc([C@@H](C)NC2CCN(c3ccc(-c4n[nH]c(=O)c5ccccc45)cc3)C2=O)c1` (stereo partly drawn) [Example 44, 4-[4-(3-{[(1R)-1-(3-methoxyphenyl)ethyl]amino}-2-oxopyrrolidin-1-yl)phenyl]-1,2-dihydrophthalazin-1-one] had a 50% inhibitory concentration (IC50) of 500 to 2000 nM.

Molecule `Cc1nc2ccc(NC3CCN(c4ccc(-c5n[nH]c(=O)c6ccccc56)cc4)C3=O)cc2s1` (racemic) [Example 66, 4-(4-{3-[(2-methyl-1,3-benzothiazol-6-yl)amino]-2-oxopyrrolidin-1-yl}phenyl)-1,2-dihydrophthalazin-1-one] returned an IC50 below 10 nM.

In turn, `O=C1C(Nc2ccc3c(c2)OCCCO3)CCN1c1ccc(-c2n[nH]c(=O)c3ccccc23)cc1` (single isomer, unassigned) [Example 77, 4-(4-{3-[(3,4-dihydro-2H-1,5-benzodioxepin-7-yl)amino]-2-oxopyrrolidin-1-yl}phenyl)-1,2-dihydrophthalazin-1-one] registered a half-maximal inhibitory concentration (IC50) of 10 to 100 nM.

For `O=C1OCC(c2ccccc2)N1c1ccc(-c2n[nH]c(=O)c3ccccc23)cc1` (stereo not drawn) [Example 14, 4-[4-(2-oxo-4-phenyl-1,3-oxazolidin-3-yl)phenyl]-1,2-dihydrophthalazin-1-one], the IC50 was in the range of 100 to 500 nM.

`O=C1C(NC2Cc3ccccc3C2)CCN1c1ccc(-c2n[nH]c(=O)c3ccccc23)cc1` (stereo not drawn) [Example 29, 4-(4-{3-[(2,3-dihydro-1H-inden-2-yl)amino]-2-oxopyrrolidin-1-yl}phenyl)-1,2-dihydrophthalazin-1-one] came in with a half-inhibitory concentration (IC50) of 500 to 2000 nM.

Consider `O=C1C(Nc2cccc(OC(F)F)c2)CCN1c1ccc(-c2n[nH]c(=O)c3ccccc23)cc1` (single isomer, unassigned) [Example 56, 4-[4-(3-{[3-(difluoromethoxy)phenyl]amino}-2-oxopyrrolidin-1-yl)phenyl]-1,2-dihydrophthalazin-1-one], for which the IC50 was below 10 nM.

In turn, `O=C1C(Oc2cccc(OC(F)(F)F)c2)CCN1c1ccc(-c2n[nH]c(=O)c3ccccc23)cc1` (single isomer, unassigned) [Example 84, 4-(4-{2-oxo-3-[3-(trifluoromethoxy)phenoxy]pyrrolidin-1-yl}phenyl)-1,2-dihydrophthalazin-1-one] had an IC50 below 10 nM.

`COc1c(F)ccc(NC2CCN(c3ccc(-c4n[nH]c(=O)c5ccccc45)cc3)C2=O)c1F` (stereo not drawn) [Example 40, 4-(4-{3-[(2,4-difluoro-3-methoxyphenyl)amino]-2-oxopyrrolidin-1-yl}phenyl)-1,2-dihydrophthalazin-1-one] gave a concentration for half-maximal inhibition (IC50) of 10 to 100 nM.

`O=C1OC(Cc2ccccc2)CN1c1ccc(-c2n[nH]c(=O)c3ccccc23)cc1` (stereo not drawn) [Example 13, 4-[4-(5-benzyl-2-oxo-1,3-oxazolidin-3-yl)phenyl]-1,2-dihydrophthalazin-1-one] gave a half-inhibitory concentration (IC50) of 10 to 100 nM.

In turn, `O=c1[nH]nc(-c2ccc(-n3ncn(Cc4cccc(F)c4)c3=O)cc2)c2ccccc12` [Example 53, 4-(4-{4-[(3-fluorophenyl)methyl]-5-oxo-4,5-dihydro-1H-1,2,4-triazol-1-yl}phenyl)-1,2-dihydrophthalazin-1-one] returned an IC50 of 100 to 500 nM.

Consider `CCc1ccccc1NC1CCN(c2ccc(-c3n[nH]c(=O)c4ccccc34)cc2)C1=O` (stereo not drawn) [Example 31, 4-(4-{3-[(2-ethylphenyl)amino]-2-oxopyrrolidin-1-yl}phenyl)-1,2-dihydrophthalazin-1-one], for which the IC50 lay within 10 to 100 nM.

Molecule `Cc1nc2ccc(NC3CCN(c4ccc(-c5n[nH]c(=O)c6ccccc56)cc4)C3=O)cc2s1` (single isomer, unassigned) [Example 80, 4-(4-{3-[(2-methyl-1,3-benzothiazol-6-yl)amino]-2-oxopyrrolidin-1-yl}phenyl)-1,2-dihydrophthalazin-1-one] displayed an IC50 below 10 nM.

As to `COc1cc(NC2CCN(c3ccc(-c4n[nH]c(=O)c5ccccc45)cc3)C2=O)ccc1N1CCN(C)CC1` (stereo not drawn) [Example 48, 4-[4-(3-{[3-methoxy-4-(4-methylpiperazin-1-yl)phenyl]amino}-2-oxopyrrolidin-1-yl)phenyl]-1,2-dihydrophthalazin-1-one], the 50% inhibitory concentration (IC50) is 10 to 100 nM.

As for `CC(C)c1cc(NC2CCN(c3ccc(-c4n[nH]c(=O)c5ccccc45)cc3)C2=O)n(C)n1` (stereo not drawn) [Example 71, 4-[4-(3-{[1-methyl-3-(propan-2-yl)-1H-pyrazol-5-yl]amino}-2-oxopyrrolidin-1-yl)phenyl]-1,2-dihydrophthalazin-1-one], the 50% inhibitory concentration (IC50) was 10 to 100 nM.

As for `O=C1C(Nc2ccc3c(c2)OCCCO3)CCN1c1ccc(-c2n[nH]c(=O)c3ccccc23)cc1` (stereo not drawn) [Example 34, 4-(4-{3-[(3,4-dihydro-2H-1,5-benzodioxepin-7-yl)amino]-2-oxopyrrolidin-1-yl}phenyl)-1,2-dihydrophthalazin-1-one], the IC50 fell in the range of 10 to 100 nM.

`N#Cc1cnc(NC2CCN(c3ccc(-c4n[nH]c(=O)c5ccccc45)cc3)C2=O)s1` (stereo not drawn) [Example 59, 2-({2-oxo-1-[4-(4-oxo-3,4-dihydrophthalazin-1-yl)phenyl]pyrrolidin-3-yl}amino)-1,3-thiazole-5-carbonitrile] returned a 50% inhibitory concentration (IC50) of 100 to 500 nM.

Regarding `CN1CCc2cc(NC3CCN(c4ccc(-c5n[nH]c(=O)c6ccccc56)cc4)C3=O)ccc2C1` (stereo not drawn) [Example 75, 4-(4-{3-[(2-methyl-1,2,3,4-tetrahydroisoquinolin-6-yl)amino]-2-oxopyrrolidin-1-yl}phenyl)-1,2-dihydrophthalazin-1-one], the IC50 lay within 500 to 2000 nM.

The test system of a further experiment is congestive heart failure in Dahl salt-sensitive rats.
Assay: not given
To be noted: rat, in vivo; cited from earlier work.
As for `C[C@@H](N)[C@H]1CC[C@H](C(=O)Nc2ccncc2)CC1` [Example Y-27632, Y-27632], the “ventricular hypertrophy, fibrosis and function” value was “improve ventricular hypertrophy, fibrosis and function”.

The next experiment relates to IL-1 beta-induced coronary stenosis.
Assay: not given
As to conditions: long term treatment; cited from earlier work.
`O=S(=O)(c1cccc2cnccc12)N1CCCNCC1` [fasudil]: the coronary constrictive remodeling entry is recorded as “promote a regression of coronary constrictive remodeling” and the coronary stenosis entry is “progressively reduce coronary stenosis”.

Another experiment deals with neointimal formation.
Assay: not given
As to conditions: rats; cited from earlier work.
As for `C[C@@H](N)[C@H]1CC[C@H](C(=O)Nc2ccncc2)CC1` [Example Y-27632, Y-27632], the neointimal formation entry is recorded as “inhibited neointimal formation”.
